Test results: article PMC11822212, “High-throughput screening identifies Aurora kinase B as a critical therapeutic target for Merkel cell carcinoma” (Nature Communications, 2025)

Tests used:
[1] = test system: MCC13 cells (VN-MCC); test: qHTS cell viability (CellTiter-Glo, 72 h; primary and follow-up small molecule screen); format: cell-based, human
[2] = test system: MCC26 cells (VN-MCC); test: as above; format: cell-based, human
[3] = test system: UISO cells (VN-MCC); test: as above; format: cell-based, human
[4] = test system: WAGA cells (VP-MCC); test: as above; format: cell-based, human
[5] = test system: MKL-1 cells (VP-MCC); test: as above; format: cell-based, human
[6] = test system: MKL-2 cells (VP-MCC); test: as above; format: cell-based, human
[7] = test system: HACAT cells; test: qHTS cell viability (CellTiter-Glo, 72 h; primary screen), control cell line; format: cell-based, human
[8] = test system: HEK293T cells; test: as above; format: cell-based, human
[9] = test system: NIH-3T3 cells; test: as above; format: cell-based, mouse
[10] = test system: CRL-7250 cells; test: as above; format: cell-based
[11] = test system: MCC cell lines (WAGA, MKL-1, MKL-2, MCC13, MCC26, UISO); test: qHTS cell viability, all six MCC cell lines as a group (mean AUC, MCC.avg); format: cell-based, human; conditions: mean AUC of six MCC cell lines
[12] = test system: VP-MCC cell lines (WAGA, MKL-1, MKL-2); test: qHTS cell viability, VP-MCC cell lines as a group (mean AUC, VP.MCC.avg); format: cell-based, human; conditions: for VP-MCC_Avg_AUC: mean AUC of VP-MCC cell lines
[13] = test system: VN-MCC cell lines (MCC13, MCC26, UISO); test: qHTS cell viability, VN-MCC cell lines as a group (mean AUC, VN.MCC.avg); format: cell-based, human; conditions: for VN-MCC_Avg_AUC: mean AUC of VN-MCC cell lines
[14] = test system: control cell lines (HACAT, HEK293T, CRL-7250, NIH-3T3); test: qHTS cell viability, control cell lines as a group (mean AUC, Control.avg); format: cell-based; conditions: mean AUC of control cell lines
[15] = test system: six MCC cell lines and four control cell lines; test: qHTS cell viability, all 10 cell lines screened; format: cell-based
[16] = NPC library, qHTS dose-response AUC, MCC13
[17] = NPC library, qHTS dose-response AUC, MCC26
[18] = NPC library, qHTS dose-response AUC, UISO
[19] = NPC library, qHTS dose-response AUC, WAGA
[20] = NPC library, qHTS dose-response AUC, MKL1
[21] = NPC library, qHTS dose-response AUC, MKL2
[22] = NPC library, qHTS dose-response AUC, HACAT control
[23] = NPC library, qHTS dose-response AUC, HEK293T control
[24] = NPC library, qHTS dose-response AUC, NIH3T3 control
[25] = NPC library, qHTS dose-response AUC, CRL7250 control
[26] = NPC library, therapeutic window: Control avg AUC minus VP-MCC avg AUC
[27] = NPC library, therapeutic window: Control avg AUC minus VN-MCC avg AUC
[28] = NPC library, therapeutic window: Control avg AUC minus MCC avg AUC
[29] = MIPE library, 11-point DRC, sheet S2E
[30] = MIPE library, 11-point DRC, control cell line, sheet S2E

| SMILES | MCC13_AUC [1, 16] | MCC26_AUC [2, 17] | UISO_AUC [3, 18] | WAGA_AUC [4, 19] | MKL1_AUC [5, 20] | MKL2_AUC [6, 21] | HACAT_AUC [7, 22] | HEK293T_AUC [8, 23] | NIH3T3_AUC [9, 24] | CRL7250_AUC [10, 25] | MCC_Avg_AUC ([11]; NPC library) | VP-MCC_Avg_AUC ([12]; NPC library) | Control-VP-MCC [12, 26] | VN-MCC_Avg_AUC ([13]; NPC library) | Control-VN-MCC [13, 27] | Control_Avg_AUC ([14]; NPC library) | Control-MCC [15, 28] | also measured |
| --- | --- | --- | --- | --- | --- | --- | --- | --- | --- | --- | --- | --- | --- | --- | --- | --- | --- | --- |
| CC[N+](CC)(CC)CCOC(=O)C(C1CCCC1)C1CCCC1 [Diponium bromide] | 522.801 | 499.996 | 475.444 | 427.062 | 427.875 | 434.115 | 486.819 | 472.065 | 484.264 | 487.778 | 464.549 | 429.684 | 53.0478 | 499.413 | -16.6818 | 482.732 | 18.183 | MCC13_AUC ([1]; area under the dose-response curve, MCC13 cells, AUC<450 = reduced viability): 522.801; MCC26_AUC ([2]; area under the dose-response curve, MCC26 cells, AUC<450 = reduced viability): 499.996; UISO_AUC ([3]; area under the dose-response curve, UISO cells, AUC<450 = reduced viability): 475.444; WAGA_AUC ([4]; area under the dose-response curve, WAGA cells, AUC<450 = reduced viability): 427.062; MKL1_AUC ([5]; area under the dose-response curve, MKL-1 cells, AUC<450 = reduced viability): 427.875; MKL2_AUC ([6]; area under the dose-response curve, MKL-2 cells, AUC<450 = reduced viability): 434.115; HACAT_AUC ([7]; area under the dose-response curve, HACAT control cells, AUC<450 = reduced viability): 486.819; HEK293T_AUC ([8]; area under the dose-response curve, HEK293T control cells, AUC<450 = reduced viability): 472.065; NIH3T3_AUC ([9]; area under the dose-response curve, NIH3T3 control cells, AUC<450 = reduced viability): 484.264; CRL7250_AUC ([10]; area under the dose-response curve, CRL7250 control cells, AUC<450 = reduced viability): 487.778 |
| CC1(C)CCC(c2ccc(Cl)cc2)=C(CN2CCN(c3ccc(C(=O)N[S+](=O)([O-])c4ccc(N[C@H](CCN5CCOCC5)CSc5ccccc5)c([S+](=O)([O-])C(F)(F)F)c4)cc3)CC2)C1 [ABT-263 (Navitoclax)] | – | – | – | – | – | – | – | – | – | – | – | – | – | – | – | – | – | MCC13_AUC [1, 29]: 470.158; MCC26_AUC [2, 29]: 476.41; UISO_AUC [3, 29]: 533.391; WAGA_AUC [4, 29]: 250.192; MKL1_AUC [5, 29]: 289.046; MKL2_AUC [6, 29]: 277.677; HACAT_AUC [7, 30]: 444.442; HEK293T_AUC [8, 30]: 470.677; NIH3T3_AUC [9, 30]: 462.454; CRL7250_AUC [10, 30]: 467.721; MCC_Avg_AUC ([11]; MIPE library, sheet S2E): 382.812; Control-VP-MCC ([12]; MIPE library, Control AUC minus VP-MCC AUC (therapeutic window), sheet S2E): 189.019; VP-MCC_Avg_AUC ([12]; MIPE library, sheet S2E): 272.305; Control-VN-MCC ([13]; MIPE library, Control AUC minus VN-MCC AUC (therapeutic window), sheet S2E): -31.9962; VN-MCC_Avg_AUC ([13]; MIPE library, sheet S2E): 493.32; Control_Avg_AUC ([14]; MIPE library, sheet S2E): 461.324; Control-MCC ([15]; MIPE library, Control AUC minus MCC AUC (therapeutic window), sheet S2E): 78.5112 |
| C[C@@H]1CN(CCCn2c3ccccc3c3ccccc32)C[C@H](C)N1.Cl.Cl [Rimcazole dihydrochloride] | 472.84 | 457.379 | 420.46 | 396.152 | 392.844 | 350.893 | 421.634 | 453.163 | 464.02 | 463.168 | 415.095 | 379.963 | 70.5333 | 450.226 | 0.27 | 450.496 | 35.4016 | – |
